From patent publication US20240391931A1 (Bristol-Myers Squibb Company, priority 2021, published 2024)
pEC50, pIC50: −log10 of the molar value.

Assays:
[1] = target: HER2YVMA (Homo sapiens, UniProt P04626, INS775YVMA); test: Enzymatic assay HER2YVMA (method b); format: biochemical; parameters: purchased Viva biotech, Shanghai, China custom purification; conditions: [HER2YVMA]=5 nM, [ATP]=25 μM, [Peptide 22]=1 μM
Method in brief: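 Initial rates over 0–3600 s, read as substrate-to-product conversion by capillary electrophoresis, were converted to percent inhibition and fitted with a variable-slope curve to give IC50. Conditions: EGFR WT 2 nM with 1 mM ATP; HER2 YVMA 5 nM or HER2 WT 12.5 nM, each with 25 μM ATP. All used 1 μM Peptide 22 in pH 7.5 HEPES/Mn/Mg buffer.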

[2] = target: T1, HER2 wildtype (WT) protein (Homo sapiens, UniProt P04626); test: HER2 signaling (pHER2 Tyr1248/total HER2 MSD) in BT474 cells; format: cell-based; conditions: 1.5 hr compound, 1% FBS
T1 construct: BT474 and N87 cell lines which endogenously overexpress the HER2 wildtype (WT) protein; endogenous in cells; host or cells: BT474, N87
T1 sequence (P04626 23-1255): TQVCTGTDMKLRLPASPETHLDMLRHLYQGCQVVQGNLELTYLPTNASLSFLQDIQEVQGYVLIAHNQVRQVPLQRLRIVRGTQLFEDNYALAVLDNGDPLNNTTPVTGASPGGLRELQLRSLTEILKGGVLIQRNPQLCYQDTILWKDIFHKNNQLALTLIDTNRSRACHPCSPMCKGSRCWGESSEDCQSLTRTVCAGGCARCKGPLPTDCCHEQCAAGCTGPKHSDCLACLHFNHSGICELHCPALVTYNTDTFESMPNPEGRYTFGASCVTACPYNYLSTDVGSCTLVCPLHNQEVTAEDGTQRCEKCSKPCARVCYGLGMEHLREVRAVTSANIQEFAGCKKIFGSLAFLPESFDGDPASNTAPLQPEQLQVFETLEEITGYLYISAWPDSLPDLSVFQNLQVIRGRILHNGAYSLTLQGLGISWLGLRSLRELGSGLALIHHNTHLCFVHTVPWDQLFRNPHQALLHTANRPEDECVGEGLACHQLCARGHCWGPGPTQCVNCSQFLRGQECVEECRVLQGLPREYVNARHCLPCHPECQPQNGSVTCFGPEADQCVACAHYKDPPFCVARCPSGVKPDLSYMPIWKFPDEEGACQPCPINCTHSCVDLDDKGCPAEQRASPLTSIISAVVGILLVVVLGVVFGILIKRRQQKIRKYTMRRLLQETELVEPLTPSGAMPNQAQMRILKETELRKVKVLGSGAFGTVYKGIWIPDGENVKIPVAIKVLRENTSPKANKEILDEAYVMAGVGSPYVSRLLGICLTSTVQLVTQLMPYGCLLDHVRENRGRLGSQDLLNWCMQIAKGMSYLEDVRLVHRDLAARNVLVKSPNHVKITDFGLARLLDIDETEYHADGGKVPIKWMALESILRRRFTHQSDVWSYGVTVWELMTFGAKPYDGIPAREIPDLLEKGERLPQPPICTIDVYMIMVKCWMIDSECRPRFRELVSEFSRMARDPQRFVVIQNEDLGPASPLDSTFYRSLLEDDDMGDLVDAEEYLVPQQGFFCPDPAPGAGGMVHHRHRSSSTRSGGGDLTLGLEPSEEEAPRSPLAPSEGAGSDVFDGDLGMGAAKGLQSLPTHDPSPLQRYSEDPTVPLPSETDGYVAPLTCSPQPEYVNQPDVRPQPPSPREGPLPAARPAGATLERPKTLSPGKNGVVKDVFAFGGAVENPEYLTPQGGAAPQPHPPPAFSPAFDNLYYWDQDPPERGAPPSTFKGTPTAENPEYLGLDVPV
Method in brief: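 BT474, N87 (HER2 WT) and NCI-H1781 (HER2 G776delinsVC) cells were treated for 1.5 h at 37° C in 1% FBS medium with compound at 0.0005–1.1 μM. pHER2 Tyr1248 was measured by MSD on whole-cell lysates and normalized to total HER2 as % DMSO. EC50 came from a variable-slope sigmoidal fit.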

Chain of HER2YVMA (P04626 with tags, fused parts or gaps INS775YVMA): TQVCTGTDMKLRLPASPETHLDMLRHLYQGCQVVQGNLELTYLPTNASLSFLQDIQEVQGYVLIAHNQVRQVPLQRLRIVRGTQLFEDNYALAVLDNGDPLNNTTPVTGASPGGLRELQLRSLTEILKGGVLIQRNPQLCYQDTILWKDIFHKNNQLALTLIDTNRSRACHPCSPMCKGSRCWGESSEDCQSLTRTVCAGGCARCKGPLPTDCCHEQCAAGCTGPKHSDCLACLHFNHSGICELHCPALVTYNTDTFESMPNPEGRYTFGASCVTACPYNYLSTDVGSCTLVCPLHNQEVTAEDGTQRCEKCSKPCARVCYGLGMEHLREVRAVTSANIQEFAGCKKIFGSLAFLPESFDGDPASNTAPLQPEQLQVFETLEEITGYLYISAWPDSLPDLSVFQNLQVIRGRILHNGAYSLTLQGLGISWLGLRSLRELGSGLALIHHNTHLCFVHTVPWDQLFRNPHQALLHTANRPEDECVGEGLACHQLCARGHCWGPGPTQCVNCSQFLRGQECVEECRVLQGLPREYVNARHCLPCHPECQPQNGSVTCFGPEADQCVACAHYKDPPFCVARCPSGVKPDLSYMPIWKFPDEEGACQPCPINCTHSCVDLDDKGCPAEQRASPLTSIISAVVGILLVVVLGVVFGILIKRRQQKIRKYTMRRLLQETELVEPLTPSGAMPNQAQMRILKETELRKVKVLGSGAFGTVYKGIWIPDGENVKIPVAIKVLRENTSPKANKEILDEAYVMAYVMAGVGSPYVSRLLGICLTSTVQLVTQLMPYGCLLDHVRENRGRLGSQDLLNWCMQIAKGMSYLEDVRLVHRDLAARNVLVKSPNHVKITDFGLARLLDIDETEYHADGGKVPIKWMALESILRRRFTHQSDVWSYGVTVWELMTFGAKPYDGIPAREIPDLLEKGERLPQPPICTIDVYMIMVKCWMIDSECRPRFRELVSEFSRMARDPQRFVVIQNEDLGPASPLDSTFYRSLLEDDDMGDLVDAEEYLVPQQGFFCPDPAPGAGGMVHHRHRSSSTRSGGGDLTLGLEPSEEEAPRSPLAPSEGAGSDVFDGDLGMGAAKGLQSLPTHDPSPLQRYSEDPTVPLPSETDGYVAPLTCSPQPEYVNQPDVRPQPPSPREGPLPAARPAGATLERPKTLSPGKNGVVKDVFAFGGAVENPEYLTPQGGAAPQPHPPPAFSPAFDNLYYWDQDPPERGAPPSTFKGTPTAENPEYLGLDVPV

Compound | pIC50 [1] | pEC50 [2]
Cc1ccc(Oc2ccc(Nc3ncnc4sc5c(c34)CCN(C(=O)/C=C/CN(C)C)CC5)cc2Cl)cn1 [Compound 167, (E)-1-(4-((3-Chloro-4-((6-methylpyridin-3-yl)oxy)phenyl)amino)-8,9-dihydro-5H-pyrimido[5′,4′:4,5]thieno[2,3-d]azepin-7(6H)-yl)-4-(dimethylamino)but-2-en-1-one] | 6.00 to 7.00 | > 7.00
Cc1cc(Nc2ncnc3sc4c(c23)CCN(C(=O)/C=C/CN(C)C)CC4)ccc1Oc1ccn2ncnc2c1 [Compound 168] | 6.00 to 7.00 | > 7.00
Cc1ccc(Oc2ccc(Nc3ncnc4sc5c(c34)C(C)CN(C(=O)/C=C/CN(C)C)C5)cc2Cl)cn1 (centres unmarked) [Compound 171, (E)-1-(4-((3-Chloro-4-((6-methylpyridin-3-yl)oxy)phenyl)amino)-5-methyl-5,6-dihydropyrido[4′,3′:4,5]thieno[2,3-d]pyrimidin-7(8H)-yl)-4-(dimethylamino)but-2-en-1-one] | > 7.00 | > 7.00
Cc1cc(Nc2ncnc3sc4c(c23)CCN(C(=O)/C=C/CN(C)C)CC4)ccc1Oc1ccn2ccnc2c1 [Compound 172, (E)-4-(Dimethylamino)-1-(4-((4-(imidazo[1,2-a]pyridin-7-yloxy)-3-methylphenyl)amino)-8,9-dihydro-5H-pyrimido[5′,4′:4,5]thieno[2,3-d]azepin-7(6H)-yl)but-2-en-1-one] | > 7.00 | > 7.00
COc1ccc(Oc2ccc(Nc3ncnc4sc5c(c34)CCN(C(=O)/C=C/CN(C)C)CC5)cc2C)cn1 [Compound 173, (E)-4-(Dimethylamino)-1-(4-((4-((6-methoxypyridin-3-yl)oxy)-3-methylphenyl)amino)-8,9-dihydro-5H-pyrimido[5′,4′:4,5]thieno[2,3-d]azepin-7(6H)-yl)but-2-en-1-one] | 6.00 to 7.00 | > 7.00
Cc1ccc(Oc2ccc(Nc3ncnc4sc5c(c34)C(C)CN(C(=O)/C=C/CN3CCOCC3)C5)cc2C)cn1 (centres unmarked) [Compound 174, (E)-1-(5-Methyl-4-((3-methyl-4-((6-methylpyridin-3-yl)oxy)phenyl)amino)-5,6-dihydropyrido[4′,3′:4,5]thieno[2,3-d]pyrimidin-7(8H)-yl)-4-morpholinobut-2-en-1-one] | > 7.00 | > 7.00
Cc1ccc(Oc2ccc(Nc3ncnc4sc5c(c34)C(C)CN(C(=O)/C=C/CN(C)C(C)(C)C)C5)cc2C)cn1 (centres unmarked) [Compound 175] | > 7.00 | > 7.00
